Data from publication PMC5392334, “Discovery and characterization of a novel irreversible EGFR mutants selective and potent kinase inhibitor CHMFL-EGFR-26 with a distinct binding mode” (Oncotarget, 2017).

How the values were obtained:
Parental BaF3 = assay: Anti-proliferation, BaF3 isogenic cell lines (CellTiter-Glo); format: cell-based; conditions: Mus musculus; Parental BaF3; 72 hours; triplet testing
BaF3-TEL-EGFR = assay: as above; format: cell-based; conditions: Mus musculus, 72 hours, triplet testing
BaF3-TEL-EGFR-C797S = assay: as above; format: cell-based; conditions: Mus musculus, 72 hours, triplet testing
BaF3-TEL-EGFR-L858R = assay: as above; format: cell-based; conditions: Mus musculus, 72 hours, triplet testing
[1] = tested on: BaF3-TEL-EGFR-L858R-C797S; assay: as above; format: cell-based; conditions: Mus musculus, 72 hours, triplet testing
BaF3-TEL-EGFR-T790M = assay: as above; format: cell-based; conditions: Mus musculus, 72 hours, triplet testing
[2] = tested on: BaF3-TEL-EGFR-T790M-C797S; assay: as above; format: cell-based; conditions: Mus musculus, 72 hours, triplet testing
BaF3-FL-EGFR-del19 = assay: as above; format: cell-based; conditions: Mus musculus, 72 hours, triplet testing
BaF3-FL-EGFR-del19-T790M = assay: as above; format: cell-based; conditions: Mus musculus, 72 hours, triplet testing
[3] = tested on: BaF3-FL-EGFR-del19-T790M-C797S; assay: as above; format: cell-based; conditions: Mus musculus, 72 hours, triplet testing
BaF3-FL-EGFR-L858R-T790M = assay: as above; format: cell-based; conditions: Mus musculus, 72 hours, triplet testing
[4] = tested on: BaF3-FL-EGFR-L858R-T790M-C797S; assay: as above; format: cell-based; conditions: Mus musculus, 72 hours, triplet testing
H1975 (EGFRL858R/T790M) = assay: Anti-proliferation, NSCLC cell lines (CellTiter-Glo); format: cell-based, human; conditions: Homo sapiens, NCI-H1975; H1975 (EGFRL858R/T790M); 72 hours; triplet testing
Method: (§1) The human cancer cell lines H1975, HCC827, H2122, CHO, CHL and H1355 were purchased from the American Type Culture Collection (ATCC) (Manassas, VA, USA). PC9 cell line was purchased from the Sigma-Aldrich (St. Louis, MO, USA). A549, H3255 were purchased from Cobioer Biosciences CO., LTD (Nanjing, China). […] A549 and H1355 were cultured in F-12K Nutrient Mixture (kaighn's Modification) (Gibco, USA) with 10% FBS and supplemented with 2% L-glutamine and 1% pen/strep. H3255 was cultured in BEGM media (LONZA, USA) with 10% FBS and supplemented with 2% L-glutamine and 1% pen/strep.

A549 (EGFR wt) = assay: as above; format: cell-based; conditions: Homo sapiens, 72 hours, triplet testing
Method: as §1

H1355(EGFR wt) = assay: as above; format: cell-based; conditions: Homo sapiens, NCI-H1355, 72 hours, triplet testing
Method: as §1

H1703 (EGFR wt) = assay: as above; format: cell-based; conditions: Homo sapiens, NCI-H1703, 72 hours, triplet testing
Method: as §1

H2122 (EGFR wt) = assay: as above; format: cell-based; conditions: Homo sapiens, NCI-H2122, 72 hours, triplet testing
Method: as §1

H3255 (EGFRL858R) = assay: as above; format: cell-based; conditions: Homo sapiens, NCI-H3255, 72 hours, triplet testing
Method: as §1

HCC827 (EGFR del19) = assay: as above; format: cell-based; conditions: Homo sapiens, 72 hours, triplet testing
Method: as §1

PC-9 (EGFR del19) = assay: as above; format: cell-based; conditions: Homo sapiens, 72 hours, triplet testing
Method: as §1

BaF3-INSR = assay: Anti-proliferative effects, INSR transformed isogenic BaF3 cells; format: cell-based; conditions: Mus musculus, read-out: IC50 (anti-proliferative; GI50)
BaF3-IGF1R = assay: Anti-proliferative effects, IGF1R transformed isogenic BaF3 cells; format: cell-based; conditions: Mus musculus, read-out: IC50 (anti-proliferative; GI50)
MNK2 kinase = conditions: cited from earlier work
[5] = quoted in discussion for comparison; species, route and reference not given; cited from earlier work
CHO = assay: Anti-proliferation, normal cells (CellTiter-Glo); conditions: Cricetulus griseus, 72 h
Method: (§2) Cells were grown in 96-well culture plates (2500-3000/well). For adherent cell lines, compounds of various concentrations were added into the plates after cells were cultured for 12 hours. Cell proliferation was determined after treatment with compounds for 72 hours. Cell viability was measured using the CellTiter–Glo assay (Promega, USA) according to the manufacturer's instructions, and luminescence was measured in a multi-label reader (Envision, PerkinElmer, USA). Data were normalized to control groups (DMSO) and represented by the mean of three independent measurements with standard error <20%. GI50 values were calculated using Prism 5.0 (GraphPad Software, San Diego, CA).

CHL = assay: Anti-proliferation, normal cells (CellTiter-Glo); conditions: Cricetulus griseus, 72 h
Method: as §2

[6] = tested on: EGFR Y1068 phosphorylation in BaF3-TEL-EGFR cells; assay: EGFR Y1068 auto-phosphorylation in transformed BaF3 cells; conditions: Mus musculus, BaF3, 4 h, read-out: EC50, phosphorylation of EGFR Y1068

SMILES	GI50 (Parental BaF3) [nM]	GI50 (BaF3-TEL-EGFR) [nM]	GI50 (BaF3-TEL-EGFR-C797S) [nM]	GI50 (BaF3-TEL-EGFR-L858R) [nM]	GI50 [1] [nM]	GI50 (BaF3-TEL-EGFR-T790M) [nM]	GI50 [2] [nM]	GI50 (BaF3-FL-EGFR-del19) [nM]	GI50 (BaF3-FL-EGFR-del19-T790M) [nM]	GI50 [3] [nM]	GI50 (BaF3-FL-EGFR-L858R-T790M) [nM]	GI50 [4] [nM]	GI50 (H1975 (EGFRL858R/T790M)) [nM]	GI50 (A549 (EGFR wt)) [nM]	GI50 (H1355(EGFR wt)) [nM]	GI50 (H1703 (EGFR wt)) [nM]	GI50 (H2122 (EGFR wt)) [nM]	GI50 (H3255 (EGFRL858R)) [nM]	GI50 (HCC827 (EGFR del19)) [nM]	GI50 (PC-9 (EGFR del19)) [nM]	further results
C=CC(=O)Nc1cc(Nc2nccc(-c3cn(C)c4ccccc34)n2)c(OC)cc1N(C)CCN(C)C [AZD9291, reference compound]	1500	300	590	< 0.3	590	13	550	1	< 0.3	200	< 0.3	310	52	3500	3000	3500	1200	33	1	2	IC50 (BaF3-INSR): 500 nM; IC50 (BaF3-IGF1R): 560 nM; IC50 (MNK2 kinase): 95 nM; T1/2 [5]: 3.1 h; GI50 (CHO): 4200 nM; GI50 (CHL): 2900 nM; EC50 [6]: 63 nM
CCC(=O)N1CCC[C@@H](n2nc(-c3ccc(OCc4cccc(C)n4)c(Cl)c3)c3c(N)ncnc32)C1 [CHMFL-EGFR-26R]	> 10000	> 10000	6600	> 10000	> 10000	> 10000	> 10000	> 10000	7100	7300	> 10000	> 10000	> 10000	> 10000	> 10000	9400	> 10000	> 10000	> 10000	> 10000	GI50 (CHO): > 10000 nM; GI50 (CHL): > 10000 nM
